The values below come from patent US12673044B2, “Methods of treating borderline personality disorder” (ORYZON GENOMICS, S.A., priority 2019, dated 2026).

For data set [1], the system named is BPD patients. Kind of data set: Phase IIa REIMAGINE trial, BPD cohort: safety and tolerability. It is filed as in vivo, human. To be noted: 1.2 mg/day oral free base, 5 days on/2 days off, 8 weeks; without significant adverse events. The text has this: (§1) As part of a Phase IIa clinical trial (REIMAGINE trial, EudraCT number 2018-002140-88) to evaluate the safety, tolerability and efficacy of the KDM1A inhibitor vafidemstat to treat aggression in adult population in patients with different CNS disorders, a cohort of BPD patients was recruited and treated with vafidemstat for 8 weeks. A summary of the protocol of this clinical trial and results obtained in the BPD cohort are provided below.
(§2) Reimagine is a unicenter, open-label, 1-arm, 8-week clinical study to evaluate the efficacy, safety and tolerability of vafidemstat in aggression in adult population with Alzheimer's Disease (AD), Lewy Body Dementia (LBD), Adult attention Deficit Hyperactivity Disorder (ADHD), Borderline Personality Disorder (BPD) and Autism Spectrum Disorder (ASD). Six patients to be recruited per disorder.
Main objective of the trial: To evaluate the safety and tolerability of vafidemstat in adult population with Alzheimer's Disease (AD), Lewy Body Dementia (LBD), Adult attention deficit hyperactivity disorder (ADHD), Borderline Personality Disorder (BPD), Autism Spectrum Disorder (ASD)
Treatment: All patients received vafidemstat (as free base) at a dose of 1.2 mg/day, administered orally as a single capsule, in a 5 days on/2 days off schedule, during 8 weeks. […]

The test system of data set [2] is BPD patients. Kind of data set: Phase IIa REIMAGINE trial, BPD cohort: efficacy by Borderline Personality Disorder Checklist (BPDCL). It is filed as in vivo, human. To be noted: 5 BPD patients, 1.2 mg/day oral free base, 5 days on/2 days off, 8 weeks, paired one-tail t-test.
Excerpt: as §1, §2
Treatment: All patients received vafidemstat (as free base) at a dose of 1.2 mg/day, administered orally as a single capsule, in a 5 days on/2 days off schedule, during 8 weeks.
Six BPD patients were recruited, but there was one drop-out, and therefore the results as described herein correspond to the 5 BPD subjects eligible for analysis. A summary of the patients recruited in this BPD cohort (demographic data at baseline) can be found in Table 1.
Assessment of efficacy of treatment in BPD patients was performed using a validated scale specific for BPD, the Borderline Personality Disorder Checklist (BPDCL). The BPDCL is an instrument specifically designed to evaluate the subjective burden of BPD in the last month and also to rate BPD changes after therapeutic intervention. Originally developed in Dutch, the BPDCL has been subsequently translated into English, Spanish and other languages, and has been applied to clinical and non-clinical samples. […]
One can use the total sum score on the BPDCL (BPDCL Total Score) as an overall index of the subjective burden caused by BPD symptoms, or one can use sum scores for one or more of the separate BPD domains. […] Efficacy assessments were always measured prior to treatment administration on the corresponding visit day. […]

`Nc1nnc(CN[C@@H]2C[C@H]2c2ccc(OCc3ccccc3)cc2)o1` [vafidemstat, 5-((((1R,2S)-2-(4-(benzyloxy)phenyl)cyclopropyl)amino)methyl)-1,3,4-oxadiazol-2-amine]: the “Safety and tolerability of treatment in BPD patients” value in data set [1] is “safe and well tolerated”. Besides, the “Aggression-related BPDCL domains combined score (anger control, impulsivity, (para)suicide), change from visit 1 (baseline) to visit 7” value in data set [2] (p=0.0029, FIG. 1) is listed as “statistically significant reduction”. Further, in data set [2] (p=0.0048, FIG. 2), the “BPDCL Total score, change from visit 1 (baseline) to visit 7” value is on record as “statistically significant reduction”. The “Non-aggression-related BPDCL domains combined score (abandonment, relationships, identity disturbance, affective instability, emptiness, dissociation), change from visit 1 (baseline) to visit 7” value in data set [2] (p=0.0234, FIG. 3) was “statistically significant reduction”.
